# Assay results: patent US5225425A, “Bis-aryl amide antagonists of platelet activating factor” (American Cyanamid Company, priority 1992, dated 1993)
# “And” between values parts separate entries of the source, which are not always exact repeats. Equal entries are not always repeated. Structures can show the parent of a compound that is named as a salt. Where two headings read alike, the source gives them in different places.
# How the values were obtained:
# [1] = biological target: T1, PAF receptor (Oryctolagus cuniculus, UniProt G1TEI7); assay: Inhibition of PAF induced platelet aggregation in rabbit platelet rich plasma; type: cell-based, rabbit (New Zealand White); details: for inhibition at 10 µM: dose .00001 M
# T1 construct: centrifuged at 800 rpm for 10-15 minutes at room temperature to recover the platelet rich plasma (PRP); from tissue; host or cells: platelets in platelet rich plasma from blood of male New Zealand White rabbits
# Description: Test compounds are evaluated as PAF receptor antagonists in vitro by measuring inhibition of PAF (platelet activating factor) induced platelet aggregation. Platelet aggregation is measured by a modification of the method described in […], et. al., J. Med. Chem., 27 1174, 1984. […] All syringes and pipets are plastic. The blood is gently mixed and immediately centrifuged at 800 rpm for 10-15 minutes at room temperature to recover the platelet rich plasma (PRP). Platelet poor plasma (PPP) is prepared by centrifuging PRP at 2800 rpm for 10 minutes at room temperature. Dilutions (1:3000) of PRP in Isotone diluent are made and platelet counts are determined on a Coulter Thrombocounter which is standardized with platelet reference standards (Interscience Platelet Control, Portland, Oreg.). PRP platelet counts are adjusted to approximately 400,000-500,000 platelets/μl by the addition of PPP. L-PAF (Platelet Activating Factor) is obtained from Calbiochem. […] All solutions are made up in plastic tubes, stored on ice and protected from heat and light. Solutions are prepared fresh or frozen at -20° C. and used within 48 hours. Incubation mixtures consisted of 400 μl PRP, 50 μl of saline diluent or test compound and 50 μl of PAF agonist. More specifically, 400μl of PRP is stabilized in a cuvette for 1-2 minutes at 37° C. in the aggregometer to achieve a stable baseline, then 50 μl of saline or test compound is added and incubated for 5 minutes before addition of the challenge concentration of pAF. A submaximal concentration is determined from the dose response curve for PAF for that experiment. In general, the challenge concentration is 5E-8 or 1E-7M. Aggregation is monitored for 5 minutes. Samples containing test compound or diluent are run simultaneously for comparison. Test compounds are initially evaluated at a screening concentration of 1E-5M. […] The recording equipment consists of a dual channel Chronolog aggregometer connected to a dual channel 10MV full scale deflection Omniscribe chart recorder (Houston Instruments). The chart recorder is calibrated daily with the use of a suspension of Bio-Rad latex beads (S-X 12 400 mesh) which has a density slightly greater than rabbit PRP. […] These limits defined a full scale deflection. The aggregation traces are analyzed by a digitizing method (C. Kohler and B. Zoltan, J. Pharm. Methods, 12, 113, 1984) with x, y coordinate data stored in a computer file. A suitable program computes parameters of interest such as the magnitude of aggregation.
# [2] = tested on: PAF; assay: PAF induced lethality in mice; type: in vivo; details: PAF 150 μg/kg IV
# Description: PAF given I.V. to mice causes an immediate hypotensive shock leading to death in 1 hour or less. […] Animals alive after 2 hours are counted and the activity of test compounds expressed as % survival corrected for any control (saline treated) animals which survived the PAF challenge.
# [3] = tested on: LPS endotoxin; assay: Low dose, chronic mouse endotoxemia (LPS endotoxin); type: in vivo, Male Balb/c mice; details: day 6, LPS 20 mg/kg i.p.
# Description: Endotoxin administration produces a shock-like state characterized by vascular permeability changes, hypotension, neutropenia, thrombocytopenia,multiple organ damage and death. The major mediators released after endotoxin injection are TNF (tumor necrosis factor), PAF (platelet activating factor) and […] (interleukin I). PAF administration mimics the signs and symptoms of endotoxin induced shock and death and endotoxin also induces the release of PAF. Therefore, the effects of endotoxin should be blocked with a PAF antagonist.
# Male Balb/c mice (approximately 20 g) are obtained from Charles River Laboratories and used after a one-two week acclimation period. Animals are given (ip) test compound dissolved in saline or water (sonicated and heated) at different time intervals prior to and after the ip injection of endotoxin (usually 2 hours before LPS endotoxin, and 3-4 hours after). Sigma E. Coli endotoxin, 0111:B4, phenol extraction, catalog #L2630 is used for these studies.
# For the chronic endotoxin shock model, a lower dose of endotoxin is administered (generally 15 to 20 mg/kg i.p). This dose gives an LD80 in two to four days following LPS administration. Test compounds are given 2 hours before LPS and 3-4 hours after on the first day, followed by 3 or 4 consecutive days of BID dosing. The number of survivors in each group is recorded each day for a period of 5 to 7 days.
# All mice challenged with LPS endotoxin = 20 mg/kg i.p.
# CL test cpd given 2 hours before and 3-4 hours after LPS challenge on day
# 0, followed by BID dosing for 3-4 days.
# [4] = PAF challenge 5.0000E-08 M, read-out: % INH of PAF induced platelet aggregation
# [5] = PAF challenge 5E-9 M, read-out: % INH of PAF induced platelet aggregation
# [6] = PAF challenge 1.0000E-08 M, read-out: % INH of PAF induced platelet aggregation
# [7] = PAF challenge .0000005 M, read-out: % INH of PAF induced platelet aggregation
# T1 sequence (G1TEI7 1-342): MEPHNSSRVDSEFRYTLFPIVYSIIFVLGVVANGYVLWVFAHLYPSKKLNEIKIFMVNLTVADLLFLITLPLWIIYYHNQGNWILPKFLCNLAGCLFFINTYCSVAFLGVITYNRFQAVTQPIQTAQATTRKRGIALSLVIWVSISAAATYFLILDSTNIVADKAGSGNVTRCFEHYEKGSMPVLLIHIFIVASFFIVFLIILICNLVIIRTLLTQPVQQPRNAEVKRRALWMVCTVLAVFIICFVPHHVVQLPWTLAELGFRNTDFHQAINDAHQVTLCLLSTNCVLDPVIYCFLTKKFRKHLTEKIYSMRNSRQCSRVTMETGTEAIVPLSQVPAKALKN
structure (smiles),measurement,setting,value
CCCCCCCCCCCCCCOc1ccc(NC(=O)Nc2cccc(C[n+]3csc(C)c3)c2)cc1 [5-Methyl-3-[[3-[[[[4-(tetradecyloxy)phenyl]amino]carbonyl]amino]phenyl]methyl]thiazolium bromide],IC50,[1]; PAF challenge 5.0000E-08 M,1.5 µM
same,IC50,[1]; PAF challenge .0000001 M,16.9 µM
same,inhibition at 10 µM,[1]; [4],92%
same,inhibition at 50 µM,"[1]; dose .00005 M, PAF challenge .0000001 M, read-out: % INH of PAF induced platelet aggregation",80%
CCCCCCCCCCCCCCOc1ccc(CN(C(C)=O)c2cccc(C[n+]3csc(C)c3)c2)cc1.[Br-] [3-[[3-[Acetyl[[4-(tetradecyloxy)phenyl]methyl]amino]phenyl]methyl]-5-methylthiazolium bromide],inhibition at 10 µM,[1]; [4],98%
same,% Survival,[2]; 1 mg/kg I.V.,83%
same,% Survival,[2]; 5 mg/kg P.O.,52%
same,% Survival,[2]; 10 mg/kg P.O.,75%
same,% Survival,[2]; 20 mg/kg P.O.,75%
same,% Survival,[2]; .25 mg/kg I.V.,100%
same,% Survival,[2]; .5 mg/kg I.V.,83%
"CCCCCCCCCCCCCCOc1ccc(CN(C(C)=O)c2cccc(C[n+]3ccc(C)c(C)c3)c2)cc1 [1-[[3-[acetyl[[4-(tetradecyloxy)phenyl]methyl]amino]phenyl]methyl]-3,4-dimethyl-pyridinium bromide]",IC50,[1]; PAF challenge 5.0000E-08 M,12 µM
same,inhibition at 10 µM,[1]; [4],52%
CCCCCCCCCCCCCCOc1ccc(CC(=O)Nc2cccc(C[n+]3ccsc3)c2)cc1.[Br-] [3-[[3-[[[4-(tetradecyloxy)phenyl]acetyl]amino]phenyl]methyl]thiazolium bromide],IC50,[1]; PAF challenge 5E-9 M,0.12 µM
same,inhibition at 2.5 µM,"[1]; dose .0000025 M, PAF challenge 5.0000E-08 M, read-out: % INH of PAF induced platelet aggregation",97%
same,inhibition at 10 µM,[1]; [4],100%
same,inhibition at 10 µM,[1]; [5],98%
same,% Survival,[3]; dose 10 mg/kg i.p.,63%
same,% Survival,[3]; dose 20 mg/kg i.p.,40%
same,% Survival,[2]; 40 mg/kg P.O.,40%
CCCCCCCCCCCCCCOc1ccc(CC(=O)Nc2cccc(C[n+]3ccn4ccccc43)c2)cc1,IC50,[1]; PAF challenge 5.0000E-08 M,1.5 µM
same,inhibition at 10 µM,[1]; [4],91%
"CCCCCCCCCCCCCCOc1ccc(CC(=O)Nc2cccc(-n3cc[n+](C)c3C)c2)cc1 [2,3-dimethyl-1-[3-[[[4-(tetradecyloxy)phenyl]acetyl]amino]phenyl]1H-imidazolium iodide]",IC50,[1]; PAF challenge 5.0000E-08 M,2.47 µM
same,inhibition at 10 µM,[1]; [4],80%
CCCCCCCCCCCCCCOc1ccc(C(=O)Nc2cccc(C[n+]3csc(C)c3)c2)cc1 [5-Methyl-3-[[3-[[4-(tetradecyloxy)benzoyl]amino]phenyl]methyl]thiazolium bromide],IC50,[1]; PAF challenge 5.0000E-08 M,5.97 µM
same,inhibition at 10 µM,[1]; [4],54%
"CCCCCCCCCCCCCCOc1ccc(CC(=O)Nc2cccc(C[n+]3cc(C)cc(C)c3)c2)cc1 [3,5-Dimethyl-1-[[3-[[[4-(tetradecyloxy)phenyl]acetyl]amino]phenyl]methyl]pyridinium bromide]",inhibition at 10 µM,[1]; [4],84%
"CCCCCCCCCCCCCCOc1ccc(CC(=O)Nc2ccc(-n3cc[n+](C)c3C)cc2)cc1 [2,3-dimethyl-1-[4-[[[4-(tetradecyloxy)phenyl]acetyl]amino]phenyl]1H-imidazolium iodide]",IC50,[1]; PAF challenge 5.0000E-08 M,4.51 µM
same,inhibition at 10 µM,[1]; [4],62%
CCCCCCCCCCCCCCCCOc1ccc(OCC(=O)Nc2ccccc2C[n+]2csc(C)c2)cc1 [3-[[2-[[[4-(Hexadecyloxy)phenoxy]acetyl]amino]phenyl]methyl]-5-methyl-thiazolium bromide],IC50,[1]; PAF challenge 1.0000E-08 M,11.2 µM
same,IC50,[1]; PAF challenge .0000005 M,3.8 µM
same,inhibition at 10 µM,[1]; [6],60%
same,inhibition at 10 µM,[1]; [7],83%
CCCCCCCCCCCCCCOc1ccc(CN(C(=O)NC)c2cccc(C[n+]3csc(C)c3)c2)cc1.[Br-] [5-methyl-3-[[3-[[(methylamino)carbonyl]-[[4-(tetradecyloxy)phenyl]methyl]amino]phenyl]methyl]-thiazolium bromide],IC50,[1]; PAF challenge 5.0000E-08 M,0.46 µM
same,IC50,[1]; PAF challenge .0000001 M,1.09 µM
same,inhibition at 10 µM,[1]; [4],90%
same,inhibition at 10 µM,"[1]; PAF challenge .0000001 M, read-out: % INH of PAF induced platelet aggregation",95%
same,% Survival,[3]; dose 10 mg/kg i.p.,46%
same,% Survival,[3]; dose 20 mg/kg i.p.,20%
CCCCCCCCCCCCCCCCOc1ccc(OCC(=O)Nc2cccc(C[n+]3csc(C)c3)c2)cc1 [3-[[3-[[[4-(Hexadecyloxy)phenoxy]acetyl]amino]phenyl]methyl]-5-methyl-thiazolium bromide],IC50,[1]; PAF challenge 1.0000E-08 M,4.4 µM
same,IC50,[1]; PAF challenge 5.0000E-08 M,5 µM
same,inhibition at 10 µM,[1]; [6],93%
same,inhibition at 10 µM,[1]; [4],72%
CCCCCCCCCCCCCCOc1ccc(CC(=O)Nc2cccc(-n3ccnc3C)c2)cc1 [N-[3-(2-methyl-1H-imidazol-1-yl)phenyl]-4-(tetradecyloxy)-benzeneacetamide monohydrochloride],IC50,[1]; PAF challenge 5.0000E-08 M,18.6 µM
same,inhibition at 10 µM,[1]; [4],34%
CCCCCCCCCCCCCCOc1ccc(CC(=O)Nc2cccc(-c3scc[n+]3C)c2)cc1 [3-Methyl-2-[3-[[[4-(tetradecyloxy)phenyl]acetyl]amino]phenyl]thiazolium chloride],IC50,[1]; PAF challenge 5.0000E-08 M,12 µM
same,inhibition at 10 µM,[1]; [4],46%
CCCCCCCCCCCCCCOc1ccc(CCN(C(C)=O)c2cccc(C[n+]3csc(C)c3)c2)cc1 [3-[[3-[Acetyl[2-[4-(tetradecyloxy)phenyl]ethyl]amino]phenyl]methyl]-5-methyl-thiazolium bromide],IC50,[1]; PAF challenge 8.0000E-09 M,2.91 µM
same,IC50,[1]; PAF challenge .0000005 M,4.3 µM
same,inhibition at 10 µM,"[1]; PAF challenge 8.0000E-09 M, read-out: % INH of PAF induced platelet aggregation",85%
same,inhibition at 10 µM,[1]; [7],69%
CCCCCCCCCCCCCCOc1cccc(CC(=O)Nc2ccccc2C[n+]2csc(C)c2)c1 [5-Methyl-3-[[2-[[[3-(tetradecyloxy)phenyl]acetyl]amino]phenyl]methyl]thiazolium bromide],IC50,[1]; PAF challenge 5E-9 M,34 µM
same,inhibition at 10 µM,[1]; [4],23%
same,inhibition at 10 µM,[1]; [5],27%
CCCCCCCCCCCCCCOc1ccc(CN(C(C)=O)c2ccc(C[n+]3csc(C)c3)cc2)cc1 [3-[[4-[acetyl[[4-(tetradecyloxy)phenyl]methyl]amino]phenyl]methyl]-5-methyl-thiazolium bromide],IC50,[1]; PAF challenge 5.0000E-08 M,2.1 µM
same,inhibition at 0.1 µM,"[1]; dose .0000001 M, PAF challenge 5.0000E-08 M, read-out: % INH of PAF induced platelet aggregation",84%
CCCCCCCCCCCCCCOc1ccc(NC(=O)c2cccc(C[n+]3csc(C)c3)c2)cc1 [5-Methyl-3-[[3-[[[4-(tetradecyloxy)phenyl]amino]carbonyl]phenyl]methyl]thiazolium bromide],IC50,[1]; PAF challenge 5.0000E-08 M,2.7 µM
same,inhibition at 10 µM,[1]; [4],89%
CCCCCCCCCCCCCCOc1ccc(CC(=O)Nc2ccc(C[n+]3csc(C)c3)cc2)cc1.[Br-] [5-methyl-3-[[4-[[[4-(tetradecyloxy)phenyl]acetyl]amino]phenyl]methyl]-thiazolium bromide],IC50,[1]; PAF challenge 5.0000E-08 M,0.18 µM and 0.32 µM and 1.3 µM
same,inhibition at 10 µM,[1]; [4],92%
same,% Survival,[2]; 5 mg/kg P.O.,32%
same,% Survival,[2]; 20 mg/kg P.O.,32%
